In patent publication US20220389359A1, “USE OF PERFLUORO-N-OCTANE FOR PIEZO-MEDIATED INTRACYTOPLASMIC SPERM INJECTION” (priority 2019, published 2022):
“Also recorded” adds a separate entry of the source.

Assays:
[1] = 25° C.; cited from earlier work
[2] = tested on: 2PN (two pronuclei) mouse embryos; assay: Mouse embryo development after incubation in fluorinated compounds; assay type: cell-based; conditions: for # embryos showing degeneration / Mean T2 to T3 (mean time from 2-cell stage to 3-cell stage) / Pace of embryo development compared to untreated control embryos / Mean T2 (mean time taken to reach the 2-cell stage): incubated 3 minutes in compound; for # embryos showing degeneration / Pace of embryo development compared to untreated control embryos: cultured 5 days; for Mean T2 (mean time taken to reach the 2-cell stage): embryos that reached 2-cell stage; for # 2-cell stage / # 3-cell stage / # expanded blastocyst / # hatching/hatched blastocyst: number of embryos; for # 2-cell stage / # 3-cell stage / # expanded blastocyst / # hatching/hatched blastocyst / # 2-cell stage (%) / # 3-cell stage (%) / # expanded blastocyst (%) / # hatching/hatched blastocyst (%): incubated 3 minutes, within 5-day incubation; for # 2-cell stage (%) / # 3-cell stage (%) / # expanded blastocyst (%) / # hatching/hatched blastocyst (%): proportion of 2PN embryos
Description: The effects of incubation in different fluorinated compounds on embryo development were tested.
223 2PN (two pronuclei) mouse embryos were randomly divided into four groups: A) raw perfluoro-n-octane; B) a commercially available perfluorohydrocarbon mixture previously used as operating liquid for Piezo-ICSI; C) purified perfluoro-n-octane; and D) untreated control.
Embryos in groups A, B and C were incubated for 3 minutes in the respective compound then transferred to culture medium. Embryos in all groups were then cultured for 5 days in an incubator (37.5° C., relative 100% humidity, 5% CO2 in air).
The number of embryos in each group showing signs of degeneration was counted.
The number of embryos in each group reaching the 2-cell, 3-cell, expanded blastocyst and hatching/hatched blastocyst stages of development within the 5-day incubation was counted.
The mean time taken to reach the 2-cell stage (T2) by those embryos that did, and the mean time taken for those embryos to develop from the 2-cell stage to the 3-cell stage (T3) were measured.

oocytes = assay: Assisted reproduction using Piezo-ICSI with purified perfluoro-n-octane operating liquid compared to c-ICSI; assay type: in vivo, human; conditions: Piezo-ICSI with purified perfluoro-n-octane as operating liquid
Text: The efficacy of assisted reproduction using c-ICSI was compared to using Piezo-ICSI was compared. Purified perfluoro-n-octane was used as operating liquid for Piezo-ICSI.
In particular, 69 patients having at least 6 mature oocytes were randomly divided into two groups. The first group underwent assisted reproduction in which sperm was introduced into oocytes using c-ICSI. The second group underwent assisted reproduction in which sperm was introduced into oocytes using Piezo-ICSI.
c-ICSI was performed using Eppendorf 2K control with ICSI micropipettes (TPC, Cooper Surgical). Piezo-ICSI was performed using PMM and Piezo micropipettes (Primetech). Purified perfluoro-n-octane was used as operating liquid in Piezo-ICSI.

| SMILES | Surface tension [1] [mN/m] | Vapour pressure [1] [mbar] | # embryos showing degeneration [2] | Additional embryos for vitrification on average compared to c-ICSI (oocytes) | Average number of embryos for vitrification (oocytes; c-ICSI 2.7) | Oocyte degeneration rate (oocytes; c-ICSI 10.2%) [%] | Utilisation rate (oocytes; c-ICSI 45.6%) [%] | Clinical pregnancy rate (oocytes; c-ICSI 50%) [%] | Fertilization rate (oocytes successfully fertilised) (oocytes; c-ICSI 65.9%, p<0.05) [%] | Mean T2 to T3 (mean time from 2-cell stage to 3-cell stage) [2] [min] | Pace of embryo development compared to untreated control embryos [2] | Mean T2 (mean time taken to reach the 2-cell stage) [2] [min] | # 2-cell stage [2] | # 3-cell stage [2] | # expanded blastocyst [2] | # hatching/hatched blastocyst [2] | # 2-cell stage (%) [2] | # 3-cell stage (%) [2] | # expanded blastocyst (%) [2] [%] | # hatching/hatched blastocyst (%) [2] [%] |
| --- | --- | --- | --- | --- | --- | --- | --- | --- | --- | --- | --- | --- | --- | --- | --- | --- | --- | --- | --- | --- |
| FC(F)(F)C(F)(F)C(F)(F)C(F)(F)C(F)(F)C(F)(F)C(F)(F)C(F)(F)F [perfluoro-n-octane, 1,1,1,2,2,3,3,4,4,5,5,6,6,7,7,8,8,8-octadecafluorooctane] | 16 | 3.4 | none | – | – | – | – | – | – | – | – | – | – | – | – | – | – | – | – | – |
| FC(F)(F)C(F)(F)C(F)(F)C(F)(F)C(F)(F)C(F)(F)C(F)(F)C(F)(F)F [purified perfluoro-n-octane, perfluoro-n-octane] | – | – | 0 | 1 | 3.8 | 3.8 | 47.3 | 55 | 80.6 | 1293 | developed at a pace comparable to untreated control embryos; also recorded: does not negatively affect embryo development | 1304 | 51 | 48 | 45 | 33 | (93%) | (87%) | 82 | 60 |
| FC(F)(F)C(F)(F)C(F)(F)C(F)(F)C(F)(F)C(F)(F)C(F)(F)C(F)(F)F [raw perfluoro-n-octane, perfluoro-n-octane] | – | – | 0 | – | – | – | – | – | – | 1518 | developed more slowly than control embryos | 1394 | 52 | 45 | 36 | 9 | (95%) | (82%) | 65 | 16 |
